This note sets out measurements from patent publication US20230303503A1, “CELL ACTIVATABLE IRON CHELATORS” (BOARD OF REGENTS, THE UNIVERSITY OF TEXAS SYSTEM, priority 2020, published 2023).

The test system of data set [1] is A549 human lung cancer cell line. As to the kind of experiment: MTT cell viability / antiproliferative assay in A549 cells. The data set is classed as cell-based. Particulars: for IC50: A549, MTT, triplicate. As to the method:
Cell culture. A549 cells (ATCC® CCL-185™) were maintained in growth medium consisting of RPMI 1640 Medium (Sigma-Aldrich, MO, USA) supplemented with 10% fetal bovine serum (Sigma-Aldrich, MO, USA) and 2% Penicillin/Streptomycin (Sigma-Aldrich, MO, USA). Cells were kept in a humidified atmosphere of 5% CO2 and 95% air at 37° C. and were split when they reached 90% confluency.
Cell viability assay. 1500 cells per well were plated on a 96-well plate (12 rows × 8 wells per row) in 100 µL growth medium and kept at 37° C. under 5% CO2. 24 h after seeding, cells were treated with another 100 µL growth medium containing different concentrations of the drug under evaluation. Cells in each row of the 96-well plate were treated with the same concentration of drug and the first two rows were kept as control and treated with growth medium alone. The highest drug concentration evaluated was 250 µM and lower concentrations were produced via serial dilution by a factor of 3. Treated cells were kept at 37° C. under 5% CO2 for 72 h. Then, 50 µL RPMI 1640 Medium without fetal bovine serum and penicillin/streptomycin containing 3 mg/mL 3-(4,5-dimethylthiazol-2-yl)-2,5-diphenyltetrazolium bromide (Sigma-Aldrich, MO, USA) was added to each well and cells were kept at 37° C. under 5% CO2 for another 4 h. Subsequently, the medium was removed, and the precipitated formazan dye taken up in DMSO (50 µL). The absorbance of the solutions was measured at 540 nm with an M5 microplate reader (Molecular Devices, USA) and 0.33 absorbance units were subtracted from all wells (this absorbance value corresponds to wells containing DMSO without dye - control). The absorbance of each row of wells were averaged and were directly proportional to the number of viable cells after drug treatment.
The antiproliferative activity of compounds 1-10 was evaluated in A549 lung cancer cells, a cell line with a well- established sensitivity to iron imbalance (Loza-Rosas et al., 2017; Ohara et al., 2013). For each compound, cellular proliferation profiles were produced via a standard MTT (3-(4,5-dimethylthiazol-2-yl)-2,5-diphenyltetrazolium bromide) assay for exposure times of 72 h and 24 h, respectively. From these proliferation profiles, averaged IC50 values and Hill slope (HS) parameters were determined via linear regression analysis.

The test system of data set [2] is Klebsiella pneumoniae (ATCC 13883). As to the kind of experiment: Bacterial growth inhibition. The format is cell-based. As to the method: (§1) Similarly, the bacterial inhibitory effect of the present ExJade derivatives was then evaluated. Initial tests were focused on two Gram-negative, ESKAPE bacteria (Mulani et al., 2019), Pseudomonas aeruginosa (ATCC 27853) and Klebsiella pneumoniae (ATCC 13883). Arbekacin, an FDA-approved aminoglycoside-based antibiotic, was used as positive control.

Data set [3] in a line: Behaviour in aqueous media (solubility, aggregation, DLS). The settings on record: water; neutral pH for ExJade. The format is physicochemical. Here is the method: Several new ExJade derivatives, designed to control solubility and modulate the intrinsic electronic features, namely ExPh, ExPh-OMe, ExH, ExBT, ExBT-OMe and ExPhos, were prepared. […] In marked contrast to what is seen in aqueous environments, solutions of ExPh and ExBT in most common organic solvents display no appreciable emission.
No significant fluorescence quenching was seen upon changing the solvents in which ExPh-OMe and ExBT-OMe were analyzed - DMSO, PhMe, THF, DCM, acetone, MeCN, MeOH and PBS. […] This putative ICT phenomenon has been observed in structurally similar N-phenylpyrrole analogues (Yoshihara et al., 2005; Yoshihara et al., 2003). Further support for the proposed aqueous induced aggregation mechanism invoked in the case of ExPh and […] came from studies of the parent system, ExJade.

Data set [4] deals with Pseudomonas aeruginosa (ATCC 27853). As to the kind of experiment: Bacterial growth inhibition. The data set is classed as cell-based. Here is the method: as §1
(§2) This observation confirms the Fe(III) chelation dependent inhibitory activity. Due to the Fe(III) chelation dependent nature of the ExJade derivatives and to illustrate their potential “real life” utility, the inhibitory activity of ExBT and ExPhos against MRSA were evaluated in a blood containing medium consisting of agar and defibrillated amniotic blood (Filipowicz et al., 2003).

For the next data set, the system named is P. aeruginosa biofilms. As to the kind of experiment: Live/dead biofilm viability assay on glass slides. The format is cell-based, Pseudomonas aeruginosa. The settings on record: CFP-SUL 16 µg/mL alone or combined with chelator 64 µg/mL. As to the method: (§3) FIGS. 11A & 11B show biofilm experiments. (FIG. 11A) Evaluation of CFP-SUL (cefoperazone-sulbactam; 16 µg/mL), CFP-SUL@ExBT (16 µg/mL@64 µg/mL), CFP-SUL@deferasirox (16 µg/mL@64 µg/mL), and CFP-SUL@ExPhos (16 µg/mL@64 µg/mL) for the treatment of P. aeruginosa and MRSA biofilms. Processed 3D images of P. aeruginosa and MRSA biofilms on glass slides using the live/dead biofilm viability assay. Distributions of PI-stained (red, dead bacteria) and Syto9-stained (green, live bacteria) (FIG. 11B) P. aeruginosa and MRSA biovolumes and CFU counts (purple dots) for the above groups. Biovolume data are mean values of three independent replicates.
(§4) Biofilm experiments were carried out on glass slides with both Pseudomonas aeruginosa and MRSA. The therapeutic performance of the broad-spectrum antibiotic cefoperazonesulbactam (CFP-SUL) (Sheu et al., 2020) was evaluated on its own and in combination with deferasirox, ExBT, and ExPhos using the live/dead biofilm caption viability assay (propidium iodide (PI): dead, red; Syto9: live, green).

The test system of data set [5] is methicillin-resistant Staphylococcus aureus (MRSA, ATCC 43300). Kind of data set: Inhibition of drug-resistant bacteria (colonies, cell viability). The data set is classed as cell-based. Particulars: agar and defibrillated amniotic blood. Here is the method: Cell viability of (FIG. 4B) MRSA (ATCC 43300) and (FIG. 4C) VRE (ATCC 51299) before and after treatment with ExBT, ExJade, ExPhos, and arbekacin (15 µM).
More importantly, two clinically relevant gram-positive, drug-resistant bacteria, methicillin-resistant Staphylococcus aureus (MRSA, ATCC 43300) and vancomycin-resistant Enterococcus faecalis (VRE, ATCC 51299) with high ALP activity were then used to evaluate further the therapeutic potential of these ExJade derivatives. Again, arbekacin was used as a positive control. […] The observed inhibition of VRE is of particular significance since there are few clinically available treatments for this multidrug-resistant bacterium.
as §2

A further data set concerns MRSA biofilms. As to the kind of experiment: Live/dead biofilm viability assay on glass slides. Particulars: CFP-SUL 16 µg/mL alone or combined with chelator 64 µg/mL. The format is cell-based, Staphylococcus aureus. As to the method: as §3, §4
Data set [6] has as its system alkaline phosphatase (ALP). Kind of data set: Alkaline phosphatase response of the pro-chelator (fluorescence). Particulars: 15 µM, ALP 0-64 U. The data set is classed as biochemical. An excerpt: This ratiometric change in fluorescence emission was ascribed to the gradual and stepwise dephosphorylation of ExPhos, which was confirmed by LC-MS analysis. ExPhos solutions exposed to ALP (64 U ALP) were subsequently treated with increasing concentrations of Fe(III) (as the FeCl3 salt). […] Based on these findings, we considered it likely that ExPhos could serve as an ALP-responsive Fe(III) pro-chelator.
Recently, protected versions of known metal chelators (“prochelators”) have been explored in an effort to avoid premature metal chelation (Wang et al., 2016). The bis-phosphate ester ExPhos was thus prepared as a phosphatase-responsive fluorescent pro-chelator that would permit detection of a disease-based biomarker (i.e., alkaline phosphatase, ALP) (Zhang et al., 2020; McCullough and Barrios, 2020; Haarhaus et al., 2017; Gwynne et al., 2019). […] Timedependent changes in fluorescence emission intensity were also seen. The limit of detection (LoD) was calculated to be 0.016 75 U (measurements performed after 5 min of incubation). The ratiometric change in the fluorescence emission was ascribed to the gradual and stepwise (bis-phosphate ester to monophosphate ester to bisphenol) dephosphorylation of ExPhos (as confirmed by LCMS analyses). This sequential conversion leads to a rapid decrease in the blue emission and a slow increase in the green emission. […]

[7] abbreviates: 24 h incubation, read-out: IC50 (24 h).
Where [8] appears, read: 72 h incubation, read-out: IC50 (72 h).

Where “and” joins values, the source holds several entries; their conditions need not be identical. Equal entries are not always repeated. Where two headings read alike, the source gives them in different places.

Consider `O=C1[O][Pt]2([NH][C@@H]3CCCC[C@H]3[NH]2)[O]C1=O` [Ox-Pt, oxaliplatin, reference compound], for which the IC50 was > 50 µM in data set [1] (setting [7]) and 0.5 ± 0.1 µM in data set [1] (setting [8]).

With `Oc1ccccc1-c1nc(-c2ccccc2O)n(-c2ccccc2)n1` [ExPh], the “inhibition of bacterial growth” value in data set [2] and in data set [4] was “capable of inhibiting the growth” each time. For the same molecule, in data set [3], the “solubility in aqueous media” value is recorded as “insoluble aggregates”.

With `O=C(c1ccc(-n2nc(-c3ccccc3O)nc2-c2ccccc2O)cc1)N1CCOCC1` [Compound 4], the concentration for half-maximal inhibition (IC50) in data set [1] (setting [7]) is > 50 µM; in data set [1] (setting [8]), 2.6 µM and 3.6 µM.

As to `COC(=O)c1ccc(-n2nc(-c3ccccc3O)nc2-c2ccccc2O)cc1` [Compound 2], the half-maximal inhibitory concentration (IC50) in data set [1] (setting [7]) was 21 ± 3 µM; in data set [1] (setting [8]), 1.6 µM and 2.5 µM.

As for `Oc1ccccc1-c1nc(-c2ccccc2O)n(-c2ccc(-c3nc4ccccc4s3)cc2)n1` [ExBT], the antibiofilm effect result in the data set on P. aeruginosa biofilms and with MRSA biofilms was “enhanced” in each case. The “inhibition of bacterial growth” value in data set [2] and in data set [4] was “capable of inhibiting the growth” in each case. Further, in data set [3], the “solubility in aqueous media” value was “insoluble aggregates”. Moreover, the “inhibitory activity in blood containing medium” value in data set [5] is “remaining strong”.

Regarding `O=C(O)c1ccc(-n2nc(-c3ccccc3O)nc2-c2ccccc2O)cc1` [Compound 1, deferasirox, reference compound], the “solubility in aqueous media” value in data set [3] was “good solubility”. In addition, in data set [1] (A549, 50 µM FeCl3, 72 h of exposure), the “cytotoxicity when cells were supplemented with FeCl3” value was “no longer produced any observable cytotoxicity”. Further, the IC50 in data set [1] (Homo sapiens, 24 h incubation, read-out: IC50 (24 h)) was > 50 µM; in data set [1] (Homo sapiens, 72 h incubation, read-out: IC50 (72 h)), 8.5 µM.

`O=P(O)(O)Oc1ccccc1-c1nc(-c2ccccc2OP(=O)(O)O)n(-c2ccc(-c3nc4ccccc4s3)cc2)n1` [ExPhos]: the antibiofilm effect entry in the data set with P. aeruginosa biofilms and with MRSA biofilms was “enhanced” throughout. Moreover, the “inhibition of bacterial growth” value in data set [2] and in data set [4] was “capable of inhibiting the growth” throughout. In data set [5], the “inhibitory activity in blood containing medium” value is reported as “remaining strong”. Also, in data set [1] (pro-chelator, in words), the “cytotoxicity towards A549 cells” value was “no significant cytotoxicity”. In data set [6], the “change in fluorescence emission in the presence of ALP” value was “dose dependent change”.
